Data reported in US8268862B2, “Sirtuin modulating compounds” (Sirtris Pharmaceuticals, Inc., priority 2007, dated 2012).

Target: T1, SIRT1 (Homo sapiens, UniProt Q96EB6)
T1 sequence (Q96EB6 1-747): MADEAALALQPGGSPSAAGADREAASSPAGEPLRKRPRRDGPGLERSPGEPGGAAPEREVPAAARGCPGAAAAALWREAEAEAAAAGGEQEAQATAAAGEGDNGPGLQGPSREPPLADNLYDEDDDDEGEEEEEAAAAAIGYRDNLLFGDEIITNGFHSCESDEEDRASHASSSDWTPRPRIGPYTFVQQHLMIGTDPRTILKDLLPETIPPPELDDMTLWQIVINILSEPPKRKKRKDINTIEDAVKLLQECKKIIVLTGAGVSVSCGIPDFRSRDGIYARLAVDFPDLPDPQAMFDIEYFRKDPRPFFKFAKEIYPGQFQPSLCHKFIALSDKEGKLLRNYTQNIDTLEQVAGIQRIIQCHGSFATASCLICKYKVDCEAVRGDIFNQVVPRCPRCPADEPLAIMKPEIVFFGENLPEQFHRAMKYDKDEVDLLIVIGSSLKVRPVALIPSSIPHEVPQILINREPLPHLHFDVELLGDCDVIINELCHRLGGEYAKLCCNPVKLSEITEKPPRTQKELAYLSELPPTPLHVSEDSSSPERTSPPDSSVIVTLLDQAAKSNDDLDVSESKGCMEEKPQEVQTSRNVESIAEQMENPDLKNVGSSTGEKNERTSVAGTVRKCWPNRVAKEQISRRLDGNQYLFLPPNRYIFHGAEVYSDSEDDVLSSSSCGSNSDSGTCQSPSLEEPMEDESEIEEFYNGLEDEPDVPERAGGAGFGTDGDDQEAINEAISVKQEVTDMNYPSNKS
Assay: mass spectrometry based SIRT1 deacetylation assay (activation)
Type: biochemical
Conditions: 0.5 μM peptide substrate, 120 μM βNAD+, 10 nM SIRT1, 25 min at 25° C.; for EC1.5 (concentration of test compound that results in 150% activation of SIRT1): NA = not active in the assay; for Emax: read-out: % FOLD ACT. (percent maximum fold activation of SIRT1)
Text: A mass spectrometry based assay was used to identify modulators of SIRT1 activity. The mass spectrometry based assay utilizes a peptide having 20 amino acid residues as follows: Ac-EE-K(biotin)-GQSTSSHSK(Ac)NleSTEG-K(5TMR)-EE-NH2 (SEQ ID NO: 1) wherein K(Ac) is an acetylated lysine residue and Nle is a norleucine. The peptide is labeled with the fluorophore 5TMR (excitation 540 nm/emission 580 nm) at the C-terminus. The sequence of the peptide substrate is based on p53 with several modifications. In addition, the methionine residue naturally present in the sequence was replaced with the norleucine because the methionine may be susceptible to oxidation during synthesis and purification.
Test compounds may be added to the reaction as described above. […] After the 25 minute incubation with SIRT1, 10 μL of 10% formic acid is added to stop the reaction. Reactions are sealed and frozen for later mass spec analysis. Determination of the mass of the substrate peptide allows for precise determination of the degree of acetylation (i.e. starting material) as compared to deacetylated peptide (product).
A control for inhibition of sirtuin activity is conducted by adding 1 μL of 500 mM nicotinamide as a negative control at the start of the reaction (e.g., permits determination of maximum sirtuin inhibition). A control for activation of sirtuin activity is conducted using 10 nM of sirtuin protein, with 1 μL of DMSO in place of compound, to determine the amount of deacetylation of the substrate at a given timepoint within the linear range of the assay. This timepoint is the same as that used for test compounds and, within the linear range, the endpoint represents a change in velocity.
For the above assay, SIRT1 protein was expressed and purified as follows. […] The protein was expressed by induction with 1 mM IPTG as an N-terminal His-tag fusion protein at 18° C. overnight and harvested at 30,000×g. Cells were lysed with lysozyme in lysis buffer (50 mM Tris-HCl, 2 mM Tris[2-carboxyethyl]phosphine (TCEP), 10 μM ZnCl2, 200 mM NaCl) and further treated with sonication for 10 min for complete lysis. The protein was purified over a Ni-NTA column (Amersham) and fractions containing pure protein were pooled, concentrated and run over a sizing column (Sephadex S200 26/60 global). The peak containing soluble protein was collected and run on an Ion-exchange column (MonoQ). Gradient elution (200 mM-500 mM NaCl) yielded pure protein. This protein was concentrated and dialyzed against dialysis buffer (20 mM Tris-HCl, 2 mM TCEP) overnight. The protein was aliquoted and frozen at −80° C. until further use.
Sirtuin modulating compounds that activated SIRT1 were identified using the assay described above and are shown below in Table 3. The EC1.5 values represent the concentration of test compounds that result in 150% activation of SIRT1. NT means that the compound was not tested using the indicated assay. NA means that the compound was not active in the indicated assay.

EC1.5 (concentration of test compound that results in 150% activation of SIRT1) | Emax | SMILES
230 NM | 307% | O=C(Nc1ccccc1-c1nc2cc(CN3CC[C@H](O)C3)cnc2s1)c1ccc2ccccc2n1 [Compound 110]
– | 100% | Cc1nc(-c2cccnc2)sc1C(=O)Nc1ccccc1-c1nc2cc(CNC(C)C)cnc2s1 [Compound 83]
665 NM | 281% | O=C(Nc1ccccc1-c1nc2cc(CN3CCOCC3)cnc2s1)c1cccc(-c2cccnc2)c1 [Compound 5]
270 NM | > 500% | O=C(Nc1ccccc1-c1nc2cc(CNC3CCNCC3)cnc2s1)c1ccc2ccccc2n1 [Compound 116]
319 NM | 192% | O=C(Nc1ccccc1-c1nc2cc(CN3CCOCC3)cnc2s1)c1cccc(-c2cccc(F)c2)c1 [Compound 49]
– | 100% | O=C(Nc1ccccc1-c1nc2cc(CN3CCOCC3)cnc2s1)c1cnc2ccccc2n1 [Compound 65]
1000 NM | 168% | O=C(Nc1ccccc1-c1nc2cc(CN3CC[C@@H](F)C3)cnc2s1)c1cccc(-c2ncccn2)c1 [Compound 31]
– | 132% | O=C(Nc1ccccc1-c1nc2cc(CN3CCOCC3)cnc2s1)c1cc(-c2ccccc2)no1 [Compound 2]
878 NM | 224% | Cc1nc(-c2cccnc2)sc1C(=O)Nc1ccccc1-c1nc2cc(CN[C@H]3CCNC3)cnc2s1 [Compound 82]
370 NM | 232% | O=C(Nc1ccccc1-c1nc2cc(CN3CC[C@@H](F)C3)cnc2s1)c1ccc2ccccc2n1 [Compound 113]
1460 NM | 304% | O=C(Nc1ccccc1-c1nc2cc(CN3CCNCC3)cnc2s1)c1ccn(-c2ccccc2)n1 [Compound 71]
620 NM | 457% | NC1CCN(Cc2cnc3sc(-c4ccccc4NC(=O)c4cccc(-c5cccnc5)c4)nc3c2)CC1 [Compound 18]
69 NM | 500% | COCCN1CCN(Cc2cnc3sc(-c4ccccc4NC(=O)c4cccc(-c5ccccc5F)n4)nc3c2)CC1 [Compound 134]
– | 131% | O=C(Nc1ccccc1-c1nc2cc(CN3CCC(F)(F)CC3)cnc2s1)c1ccc2ccccc2n1 [Compound 102]
281 NM | 492% | COCCN1CCN(Cc2cnc3sc(-c4ccccc4NC(=O)c4cccc(-c5ccccn5)c4)nc3c2)CC1 [Compound 34]
357 NM | 411% | O=C(Nc1ccccc1-c1nc2cc(CN3CCOCC3)cnc2s1)c1cccc(-c2ccccc2F)n1 [Compound 52]
233 NM | 241% | O=C(Nc1ccccc1-c1nc2cc(CN3CCOCC3)cnc2s1)c1cccc(-c2ccccc2)c1 [Compound 1]
162 NM | 906% | NC1CCN(Cc2cnc3sc(-c4ccccc4NC(=O)c4cccc(-c5ccccn5)c4)nc3c2)CC1 [Compound 21]
235 NM | 239% | Cc1c(C(=O)Nc2ccccc2-c2nc3cc(CN4CCNCC4)cnc3s2)oc2ccccc12 [Compound 89]

EC1.5 (concentration of test compound that results in 150% activation of SIRT1) | Emax | SMILES
884 NM | 370% | COCCN1CCN(Cc2cnc3sc(-c4ccccc4NC(=O)c4cccc(-c5cccnc5)c4)nc3c2)CC1 [Compound 58]
41 NM | > 500% | COCCN1CCN(Cc2cnc3sc(-c4ccccc4NC(=O)c4cccc(-c5cccc(F)c5)n4)nc3c2)CC1 [Compound 57]
– | 336% | O=C(Nc1ccccc1-c1nc2ccc(CN3CCNCC3)nc2s1)c1cnc2ccccc2n1 [Compound 66]
504 NM | 321% | O=C(Nc1ccccc1-c1nc2cc(CN3CCOCC3)cnc2s1)c1cccc(-c2ccccn2)c1 [Compound 4]
91 NM | 533% | COCCN1CCN(Cc2cnc3sc(-c4ccccc4NC(=O)c4cccc(-c5ccccc5)c4)nc3c2)CC1 [Compound 33]
127 NM | 500% | COCCN1CCN(Cc2cnc3sc(-c4ccccc4NC(=O)c4cccc(-c5cccc(F)c5F)n4)nc3c2)CC1 [Compound 146]
230 NM | 457% | COCCN1CCN(Cc2cnc3sc(-c4ccccc4NC(=O)c4cccc(-c5ccccc5C(F)(F)F)n4)nc3c2)CC1 [Compound 139]
– | 100% | O=C(Nc1ccccc1-c1nc2cc(CN3CCNCC3)cnc2s1)c1nc2ccc(F)cc2o1 [Compound 126]
41 NM | 500% | COCCN1CCN(Cc2cnc3sc(-c4ccccc4NC(=O)c4cccc(-c5cccc(C(F)(F)F)c5)n4)nc3c2)CC1 [Compound 140]
458 NM | 389% | COCCN1CCN(Cc2cnc3sc(-c4ccccc4NC(=O)c4ccnc(-c5ccccc5)c4)nc3c2)CC1 [Compound 56]
584 NM | 252% | O=C(Nc1ccccc1-c1nc2cc(CN3CCCC3)cnc2s1)c1cccc(-c2ccccc2)c1 [Compound 13]
– | 100% | O=C(Nc1ccccc1-c1nc2cc(CN3CC[C@@H](F)C3)cnc2s1)c1cn2cc(C(F)(F)F)ccc2n1 [Compound 129]
627 NM | 531% | C[C@@H]1CN(Cc2cnc3sc(-c4ccccc4NC(=O)c4cccc(-c5ccccn5)c4)nc3c2)C[C@H](C)N1 [Compound 15]
– | 100% | O=C(Nc1ccccc1-c1nc2cc(CN3CCCC(F)(F)C3)cnc2s1)c1ccc2ccccc2n1 [Compound 118]
– | 146% | O=C(Nc1ccccc1-c1nc2cc(CN3CCC(F)CC3)cnc2s1)c1ccc2ccccc2n1 [Compound 114]
557 NM | 216% | O=C(Nc1ccccc1-c1nc2cc(CN3CCCC3=O)cnc2s1)c1cccc(-c2ccccc2)c1 [Compound 149]
1060 NM | 162% | O=C(Nc1ccccc1-c1nc2cc(CN3CCOCC3)cnc2s1)c1ccc2ccccc2c1 [Compound 96]
4270 NM | 166% | O=C(Nc1ccccc1-c1nc2cc(CN3CC[C@@H](F)C3)cnc2s1)c1cccc(-n2cnnn2)c1 [Compound 84]
592 NM | 231% | O=C(Nc1ccccc1-c1nc2cc(CN3CCNCC3)cnc2s1)c1cc(-c2ccccc2)no1 [Compound 62]
